Test results taken from the kinase profiling compilation of Christmann-Franck et al. (2016).

Key:
Assay in all cases: KINOMEscan competition binding
Conditions in all cases: compound 10.0 µM
ACVRL1 (human) = ACVRL1 (human) (UniProt P37023)
AKT3 (human) = AKT3 (human) (UniProt Q9Y243)
AURKC (human) = AURKC (human) (UniProt Q9UQB9)
BLK (human) = BLK (human) (UniProt P51451)
BRSK2 (human) = BRSK2 (human) (UniProt Q8IWQ3)
CAMK1G (human) = CAMK1G (human) (UniProt Q96NX5)
CAMK2G (human) = CAMK2G (human) (UniProt Q13555)
CAMK2G (human), sequence (Q13555 whole entry, looked up): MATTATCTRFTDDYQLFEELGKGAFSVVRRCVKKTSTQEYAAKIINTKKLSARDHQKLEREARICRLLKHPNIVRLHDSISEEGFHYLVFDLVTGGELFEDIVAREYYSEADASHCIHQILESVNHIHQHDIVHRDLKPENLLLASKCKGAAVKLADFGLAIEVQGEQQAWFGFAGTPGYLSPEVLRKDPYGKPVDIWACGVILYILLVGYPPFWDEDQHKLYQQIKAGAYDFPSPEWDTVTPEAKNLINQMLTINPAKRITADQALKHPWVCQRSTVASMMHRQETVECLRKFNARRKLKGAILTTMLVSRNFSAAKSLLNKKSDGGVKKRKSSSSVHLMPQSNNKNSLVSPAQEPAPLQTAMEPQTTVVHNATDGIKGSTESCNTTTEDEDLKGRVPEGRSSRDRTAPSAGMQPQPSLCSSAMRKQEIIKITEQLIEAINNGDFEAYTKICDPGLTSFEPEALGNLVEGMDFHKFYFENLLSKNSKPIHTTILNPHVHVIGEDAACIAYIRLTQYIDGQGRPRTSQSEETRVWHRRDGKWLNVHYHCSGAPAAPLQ

CDC2L2 (human) = CDC2L2 (human) (UniProt Q9UQ88)
CDC42BPG (human) = CDC42BPG (human) (UniProt Q6DT37)
CDK18 (human) = CDK18 (human) (UniProt Q07002)
CSK (human) = CSK (human) (UniProt P41240)
DAPK2 (human) = DAPK2 (human) (UniProt Q9UIK4)
DCLK3 (human) = DCLK3 (human) (UniProt Q9C098)
[1] = test system: EGFR (human), P00533 [G719C]
EPHA4 (human) = EPHA4 (human) (UniProt P54764)
EPHA4 (human), sequence (P54764 whole entry, looked up): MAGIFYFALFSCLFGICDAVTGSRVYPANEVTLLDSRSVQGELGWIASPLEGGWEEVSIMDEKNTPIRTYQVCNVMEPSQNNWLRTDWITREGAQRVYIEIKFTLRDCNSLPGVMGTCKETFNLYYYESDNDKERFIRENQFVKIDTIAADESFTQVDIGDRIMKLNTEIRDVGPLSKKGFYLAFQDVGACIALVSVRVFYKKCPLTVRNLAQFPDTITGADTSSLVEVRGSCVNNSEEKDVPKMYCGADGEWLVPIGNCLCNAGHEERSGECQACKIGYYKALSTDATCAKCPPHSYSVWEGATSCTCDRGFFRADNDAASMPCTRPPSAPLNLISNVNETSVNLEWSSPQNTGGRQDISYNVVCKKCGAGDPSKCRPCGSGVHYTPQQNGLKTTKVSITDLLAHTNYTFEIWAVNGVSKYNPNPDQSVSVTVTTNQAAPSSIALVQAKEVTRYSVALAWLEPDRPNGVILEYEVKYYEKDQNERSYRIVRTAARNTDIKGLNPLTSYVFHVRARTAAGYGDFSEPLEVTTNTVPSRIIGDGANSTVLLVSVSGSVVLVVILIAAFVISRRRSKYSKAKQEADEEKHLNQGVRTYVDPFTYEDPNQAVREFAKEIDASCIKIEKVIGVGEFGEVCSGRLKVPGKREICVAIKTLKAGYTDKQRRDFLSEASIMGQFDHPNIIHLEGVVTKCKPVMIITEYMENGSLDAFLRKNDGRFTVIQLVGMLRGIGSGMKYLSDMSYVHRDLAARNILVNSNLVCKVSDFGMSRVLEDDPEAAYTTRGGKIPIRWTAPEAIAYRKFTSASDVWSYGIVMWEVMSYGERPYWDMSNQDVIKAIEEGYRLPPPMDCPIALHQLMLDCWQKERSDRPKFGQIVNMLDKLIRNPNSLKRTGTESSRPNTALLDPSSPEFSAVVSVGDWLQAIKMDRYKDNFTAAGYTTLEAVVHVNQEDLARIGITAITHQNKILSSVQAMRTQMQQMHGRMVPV

EPHB1 (human) = EPHB1 (human) (UniProt P54762)
[2] = test system: FGFR3 (human), P22607 [G697C]
FGFR3 (human), P22607 [G697C], sequence (P22607 whole entry G697C, looked up): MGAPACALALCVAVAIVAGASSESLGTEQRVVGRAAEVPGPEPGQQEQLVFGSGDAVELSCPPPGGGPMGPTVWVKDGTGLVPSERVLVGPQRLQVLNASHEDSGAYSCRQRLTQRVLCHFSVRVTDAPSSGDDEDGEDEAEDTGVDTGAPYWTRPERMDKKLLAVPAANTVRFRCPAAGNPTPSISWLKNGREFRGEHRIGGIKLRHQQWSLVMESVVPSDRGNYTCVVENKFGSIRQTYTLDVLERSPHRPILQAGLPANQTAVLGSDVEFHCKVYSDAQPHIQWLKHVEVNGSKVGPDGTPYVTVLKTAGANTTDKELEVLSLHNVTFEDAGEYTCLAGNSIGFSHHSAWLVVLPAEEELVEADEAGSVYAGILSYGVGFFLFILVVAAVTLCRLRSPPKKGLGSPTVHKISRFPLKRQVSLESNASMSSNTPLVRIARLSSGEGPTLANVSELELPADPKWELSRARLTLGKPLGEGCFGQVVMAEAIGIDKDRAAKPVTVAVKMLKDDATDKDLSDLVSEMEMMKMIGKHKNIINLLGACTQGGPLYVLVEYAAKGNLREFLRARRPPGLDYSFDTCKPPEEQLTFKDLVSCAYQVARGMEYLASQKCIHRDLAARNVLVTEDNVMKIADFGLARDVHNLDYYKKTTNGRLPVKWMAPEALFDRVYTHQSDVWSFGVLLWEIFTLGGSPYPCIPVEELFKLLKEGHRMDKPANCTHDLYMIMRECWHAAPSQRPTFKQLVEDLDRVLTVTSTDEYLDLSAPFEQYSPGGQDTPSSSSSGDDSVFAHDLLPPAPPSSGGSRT

[3] = test system: FLT3 (human), P36888 [D835Y]
IKBKE (human) = IKBKE (human) (UniProt Q14164)
[4] = biological target: JAK1 JH2 pseudokinase (human) (UniProt P23458)
LYN (human) = LYN (human) (UniProt P07948)
MAPK1 (human) = MAPK1 (human) (UniProt P28482)
MAPK1 (human), sequence (P28482 whole entry, looked up): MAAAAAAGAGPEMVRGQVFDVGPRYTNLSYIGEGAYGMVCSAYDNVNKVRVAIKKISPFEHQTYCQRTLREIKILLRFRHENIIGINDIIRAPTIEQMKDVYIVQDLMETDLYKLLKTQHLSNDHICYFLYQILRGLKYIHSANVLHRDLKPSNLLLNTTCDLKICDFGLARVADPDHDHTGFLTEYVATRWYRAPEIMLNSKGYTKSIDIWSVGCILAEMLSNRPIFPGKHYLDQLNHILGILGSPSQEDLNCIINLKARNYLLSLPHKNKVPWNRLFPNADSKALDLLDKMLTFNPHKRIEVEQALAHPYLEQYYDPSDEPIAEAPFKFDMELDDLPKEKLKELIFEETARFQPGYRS

MYO3B (human) = MYO3B (human) (UniProt Q8WXR4)
NEK7 (human) = NEK7 (human) (UniProt Q8TDX7)
NLK (human) = NLK (human) (UniProt Q9UBE8)
NUAK1 (human) = NUAK1 (human) (UniProt O60285)
PIP4K2B (human) = PIP4K2B (human) (UniProt P78356)
PRKACB (human) = PRKACB (human) (UniProt P22694)
PRKD3 (human) = PRKD3 (human) (UniProt O94806)
RPS6KA2 KD2 (human) = RPS6KA2 KD2 (human) (UniProt Q15349)
RPS6KA2 KD2 (human), sequence (Q15349 whole entry, looked up): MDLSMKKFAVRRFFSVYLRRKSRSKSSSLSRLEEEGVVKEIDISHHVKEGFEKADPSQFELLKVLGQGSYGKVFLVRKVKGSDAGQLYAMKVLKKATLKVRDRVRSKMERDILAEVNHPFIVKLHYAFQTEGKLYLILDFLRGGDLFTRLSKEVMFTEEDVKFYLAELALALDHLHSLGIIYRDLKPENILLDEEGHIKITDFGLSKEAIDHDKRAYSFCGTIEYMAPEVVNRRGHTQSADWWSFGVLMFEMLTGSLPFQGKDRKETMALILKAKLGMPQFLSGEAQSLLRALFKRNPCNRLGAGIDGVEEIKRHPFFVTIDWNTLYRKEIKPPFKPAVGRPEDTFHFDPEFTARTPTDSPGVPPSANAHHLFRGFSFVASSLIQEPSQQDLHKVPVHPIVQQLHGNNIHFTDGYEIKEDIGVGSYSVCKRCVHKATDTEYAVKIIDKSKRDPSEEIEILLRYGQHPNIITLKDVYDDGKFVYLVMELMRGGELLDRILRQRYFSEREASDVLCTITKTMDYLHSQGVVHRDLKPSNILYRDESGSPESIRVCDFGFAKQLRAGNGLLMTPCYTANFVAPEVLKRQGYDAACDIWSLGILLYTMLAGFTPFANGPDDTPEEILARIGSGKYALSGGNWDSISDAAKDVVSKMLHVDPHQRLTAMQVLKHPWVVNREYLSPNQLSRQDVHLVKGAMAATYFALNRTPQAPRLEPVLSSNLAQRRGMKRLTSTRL

STK16 (human) = STK16 (human) (UniProt O75716)
STK16 (human), sequence (O75716 whole entry, looked up): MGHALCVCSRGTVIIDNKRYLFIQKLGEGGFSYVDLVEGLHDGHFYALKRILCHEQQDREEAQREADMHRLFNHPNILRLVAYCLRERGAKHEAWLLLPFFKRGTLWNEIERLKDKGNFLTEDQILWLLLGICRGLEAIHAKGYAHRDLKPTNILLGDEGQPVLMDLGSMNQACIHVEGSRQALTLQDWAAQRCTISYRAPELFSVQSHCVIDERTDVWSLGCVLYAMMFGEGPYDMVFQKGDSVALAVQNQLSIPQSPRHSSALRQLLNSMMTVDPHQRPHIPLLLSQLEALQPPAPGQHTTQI

STK17B (human) = STK17B (human) (UniProt O94768)
TEC (human) = TEC (human) (UniProt P42680)
TXK (human) = TXK (human) (UniProt P42681)
CHUK (human) = CHUK (human) (UniProt O15111)
IKBKB (human) = IKBKB (human) (UniProt O14920)
MAP3K3 (human) = MAP3K3 (human) (UniProt Q99759)
MAP4K2 (human) = MAP4K2 (human) (UniProt Q12851)
STK39 (human) = STK39 (human) (UniProt Q9UEW8)

AKT3 (human), sequence (Q9Y243 whole entry, looked up): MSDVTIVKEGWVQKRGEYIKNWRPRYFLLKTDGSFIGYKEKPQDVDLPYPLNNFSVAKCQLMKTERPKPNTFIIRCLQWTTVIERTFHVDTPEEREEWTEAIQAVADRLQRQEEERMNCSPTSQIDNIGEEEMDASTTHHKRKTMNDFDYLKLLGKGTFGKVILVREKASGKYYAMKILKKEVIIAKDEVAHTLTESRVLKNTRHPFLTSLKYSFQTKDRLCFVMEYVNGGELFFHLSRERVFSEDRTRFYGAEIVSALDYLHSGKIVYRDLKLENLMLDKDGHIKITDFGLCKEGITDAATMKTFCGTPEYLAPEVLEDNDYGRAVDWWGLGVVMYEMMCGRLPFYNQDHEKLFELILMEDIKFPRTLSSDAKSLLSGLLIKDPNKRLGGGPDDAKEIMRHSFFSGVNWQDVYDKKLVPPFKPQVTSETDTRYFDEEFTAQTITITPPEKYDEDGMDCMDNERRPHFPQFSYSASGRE
CAMK1G (human), sequence (Q96NX5 whole entry, looked up): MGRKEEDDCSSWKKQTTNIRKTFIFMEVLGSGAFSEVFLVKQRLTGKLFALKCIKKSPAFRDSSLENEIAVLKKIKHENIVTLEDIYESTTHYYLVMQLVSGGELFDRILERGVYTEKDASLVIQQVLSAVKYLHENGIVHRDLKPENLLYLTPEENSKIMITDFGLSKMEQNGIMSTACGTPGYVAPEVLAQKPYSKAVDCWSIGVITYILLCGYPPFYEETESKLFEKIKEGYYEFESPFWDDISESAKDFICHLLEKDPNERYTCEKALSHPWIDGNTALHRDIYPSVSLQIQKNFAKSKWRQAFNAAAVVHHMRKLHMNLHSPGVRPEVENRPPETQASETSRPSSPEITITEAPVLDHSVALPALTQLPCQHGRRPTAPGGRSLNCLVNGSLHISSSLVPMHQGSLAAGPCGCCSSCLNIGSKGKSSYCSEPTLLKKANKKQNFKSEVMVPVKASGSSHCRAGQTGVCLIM
AURKC (human), sequence (Q9UQB9 whole entry, looked up): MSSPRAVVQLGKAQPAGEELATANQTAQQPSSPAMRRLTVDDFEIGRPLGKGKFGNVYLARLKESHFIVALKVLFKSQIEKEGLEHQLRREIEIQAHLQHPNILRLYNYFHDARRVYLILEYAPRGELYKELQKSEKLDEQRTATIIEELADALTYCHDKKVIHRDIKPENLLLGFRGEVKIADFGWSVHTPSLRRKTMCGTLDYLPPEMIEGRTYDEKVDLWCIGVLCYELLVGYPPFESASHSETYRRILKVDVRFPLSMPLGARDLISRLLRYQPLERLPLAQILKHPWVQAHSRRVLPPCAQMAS

Row | Compound | kinase still bound, per cent of control (AURKC (human)) | kinase still bound, per cent of control (BRSK2 (human)) | kinase still bound, per cent of control (CAMK1G (human)) | kinase still bound, per cent of control (CAMK2G (human)) | kinase still bound, per cent of control (CDC2L2 (human)) | kinase still bound, per cent of control (CDC42BPG (human)) | kinase still bound, per cent of control (CDK18 (human)) | kinase still bound, per cent of control (CSK (human)) | kinase still bound, per cent of control (DAPK2 (human)) | kinase still bound, per cent of control (DCLK3 (human)) | kinase still bound, per cent of control (EPHA4 (human)) | kinase still bound, per cent of control (IKBKE (human)) | kinase still bound, per cent of control (MAPK1 (human)) | kinase still bound, per cent of control (MYO3B (human)) | kinase still bound, per cent of control (NEK7 (human)) | kinase still bound, per cent of control (NUAK1 (human)) | kinase still bound, per cent of control (PIP4K2B (human)) | kinase still bound, per cent of control (PRKACB (human)) | kinase still bound, per cent of control (PRKD3 (human)) | kinase still bound, per cent of control (RPS6KA2 KD2 (human)) | also measured
1 | COc1ccc(N(C(=O)Oc2cc(C(=O)Nc3cccc(C(F)(F)F)c3)ccc2C)c2ccnc(Nc3ccc(N4CCN(C)CC4)cc3)n2)c(OC)c1 | 100% | 100% | 100% | 100% | 8% | 100% | 100% | 1.2% | 100% | 100% | 2.4% | 100% | 100% | 100% | 100% | 100% | 100% | 27% | 100% | 100% | kinase still bound, per cent of control (ACVRL1 (human)): 100%; kinase still bound, per cent of control (AKT3 (human)): 100%; kinase still bound, per cent of control (BLK (human)): 0.45%; kinase still bound, per cent of control [1]: 23%; kinase still bound, per cent of control (EPHB1 (human)): 0.15%; kinase still bound, per cent of control [2]: 8.6%; kinase still bound, per cent of control [3]: 100%; kinase still bound, per cent of control [4]: 100%; kinase still bound, per cent of control (LYN (human)): 0.95%; kinase still bound, per cent of control (NLK (human)): 30%; kinase still bound, per cent of control (STK16 (human)): 100%; kinase still bound, per cent of control (STK17B (human)): 100%; kinase still bound, per cent of control (TEC (human)): 0.2%; kinase still bound, per cent of control (TXK (human)): 0.65%
2 | CC(=O)c1c(C)c2cnc(Nc3ccc(N4CCNCC4)cn3)nc2n(C2CCCC2)c1=O | 96% | 80% | 20% | 11% | 78% | 94% | 20% | 90% | 2.4% | 9.6% | 94% | 22% | 73% | 100% | 60% | 48% | 18% | 100% | 0.75% | 26% | kinase still bound, per cent of control (CHUK (human)): 83%; kinase still bound, per cent of control [3]: 1.6%; kinase still bound, per cent of control (IKBKB (human)): 80%; kinase still bound, per cent of control (MAP3K3 (human)): 4.2%; kinase still bound, per cent of control (MAP4K2 (human)): 52%; kinase still bound, per cent of control (STK16 (human)): 3.4%; kinase still bound, per cent of control (STK39 (human)): 6.8%; kinase still bound, per cent of control (TEC (human)): 98%
3 | CCc1nc(-c2cccc(C)c2)c(-c2ccnc(NC(=O)c3ccccc3)c2)s1 | 90% | 95% | 97% | 100% | 90% | 15% | 96% | 88% | 88% | 90% | 94% | 100% | 96% | 48% | 100% | 100% | 93% | 95% | 26% | 86% | kinase still bound, per cent of control (ACVRL1 (human)): 85%; kinase still bound, per cent of control (AKT3 (human)): 95%; kinase still bound, per cent of control (BLK (human)): 17%; kinase still bound, per cent of control (CHUK (human)): 100%; kinase still bound, per cent of control (EPHB1 (human)): 83%; kinase still bound, per cent of control [2]: 93%; kinase still bound, per cent of control (IKBKB (human)): 100%; kinase still bound, per cent of control [4]: 70%; kinase still bound, per cent of control (LYN (human)): 54%; kinase still bound, per cent of control (MAP3K3 (human)): 92%; kinase still bound, per cent of control (MAP4K2 (human)): 93%; kinase still bound, per cent of control (NLK (human)): 4%; kinase still bound, per cent of control (STK16 (human)): 74%; kinase still bound, per cent of control (STK17B (human)): 91%; kinase still bound, per cent of control (STK39 (human)): 100%; kinase still bound, per cent of control (TEC (human)): 100%; kinase still bound, per cent of control (TXK (human)): 75%
4 | CCN(CCO)CCCOc1ccc2c(Nc3cc(CC(=O)Nc4cccc(F)c4)[nH]n3)ncnc2c1 | 19% | 100% | 73% | 100% | 5% | 100% | 62% | 24% | 89% | 86% | 92% | 51% | 100% | 100% | 94% | 60% | 100% | 100% | 63% | 77% | kinase still bound, per cent of control (ACVRL1 (human)): 97%; kinase still bound, per cent of control (AKT3 (human)): 88%; kinase still bound, per cent of control (BLK (human)): 9.6%; kinase still bound, per cent of control (CHUK (human)): 100%; kinase still bound, per cent of control (EPHB1 (human)): 98%; kinase still bound, per cent of control [2]: 100%; kinase still bound, per cent of control (IKBKB (human)): 91%; kinase still bound, per cent of control [4]: 100%; kinase still bound, per cent of control (LYN (human)): 18%; kinase still bound, per cent of control (MAP3K3 (human)): 70%; kinase still bound, per cent of control (MAP4K2 (human)): 29%; kinase still bound, per cent of control (NLK (human)): 100%; kinase still bound, per cent of control (STK16 (human)): 100%; kinase still bound, per cent of control (STK17B (human)): 93%; kinase still bound, per cent of control (STK39 (human)): 100%; kinase still bound, per cent of control (TEC (human)): 78%; kinase still bound, per cent of control (TXK (human)): 100%
